Counter-ions that a name gives are not always drawn.
What was measured:
[1] = design: method as in earlier work; conditions: ref 3 (supplement); cited from earlier work
[2] = cited from earlier work
in vitro = conditions: male, mouse, pooled liver microsomes, pH 7.4

| SMILES | bound to plasma proteins [2] | further results |
| --- | --- | --- |
| CCN(CC)CCOC(=O)c1ccc(N)cc1 [Procaine, Procaine hydrochloride] |  | time of hydrolysis by human plasma esterases into PABA [1]: ~ 10 min |
| C=C(C)[C@@H]1CC[C@]2(C(=O)O)CC[C@]3(C)[C@H](CC[C@@H]4[C@@]5(C)CC[C@H](O)C(C)(C)[C@@H]5CC[C@]43C)[C@@H]12 [betulinic acid] | more than 95% |  |
| O=C(O)Cc1ccccc1Nc1c(Cl)cccc1Cl [Diclofenac, diclofenac sodium salt] |  | half-life (in vitro): 2.55 h |
| C[C@H]1[C@H](C)CC[C@]2(C(=O)O)CC[C@]3(C)C(=CC[C@@H]4[C@@]5(C)C[C@@H](O)[C@H](O)[C@@](C)(CO)[C@@H]5CC[C@]43C)[C@H]12 [asiatic acid] | more than 95% |  |
| C[C@H]1[C@H](C)CC[C@]2(C(=O)O)CC[C@]3(C)C(=CC[C@@H]4[C@@]5(C)CC[C@H](O)C(C)(C)[C@@H]5CC[C@]43C)[C@H]12 [ursolic acid] | more than 95% |  |
| CC1(C)CC[C@]2(C(=O)O)CC[C@]3(C)C(=CC[C@@H]4[C@@]5(C)CC[C@H](O)C(C)(C)[C@@H]5CC[C@]43C)[C@@H]2C1 [oleanolic acid] | more than 95% |  |
